From US8802861B2, “Thiazole derivatives and use thereof” (Merck Serono SA, priority 2004, dated 2014)

Target: PI3Kγ (Homo sapiens (Human), UniProt P48736)
Test: High Throughput PI3K Lipid Kinase Assay (scintillation proximity assay)
Type: biochemical
Details: Human recombinant GST-PI3Kγ, SPA
From the text: a) High Throughput PI3K Lipid Kinase Assay (Binding Assay): The efficacy of compounds of the invention in inhibiting the PI3K induced-lipid phosphorylation may be tested in the following binding assay. The assay combines the scintillation proximity assay technology (SPA, Amersham) with the capacity of neomycin (a polycationic antibiotic) to bind phospholipids with high affinity and specificity. The Scintillation Proximity Assay is based on the properties of weakly emitting isotopes (such as ^3H, ^125I, ^33P). Coating SPA beads with neomycin allows the detection of phosphorylated lipid substrates after incubation with recombinant PI3K and radioactive ATP in the same well, by capturing the radioactive phospholipids to the SPA beads through their specific binding to neomycin. […] After incubation at room temperature for 180 minutes, with gentle agitation, the reaction is stopped by addition of 60 μl of a solution containing 100 μg of neomycin-coated PVT SPA beads in PBS containing ATP 10 mM and EDTA 5 mM. The assay is further incubated at room temperature for 60 minutes with gentle agitation to allow binding of phospholipids to neomycin-SPA beads. After precipitation of the neomycin-coated PVT SPA beads for 5 minutes at 1500×g, radioactive PtdIns(3)P is quantified by scintillation counting in a Wallac MicroBetaTM plate counter. The values indicated in Table I below refer to the IC50 (nM) with respect to PI3Kγ, i.e. the amount necessary to achieve 50% inhibition of said target. Said values show a considerable inhibitory potency of thiazole compounds with regard to PI3Kγ.

Sequence of PI3Kγ (P48736 whole entry): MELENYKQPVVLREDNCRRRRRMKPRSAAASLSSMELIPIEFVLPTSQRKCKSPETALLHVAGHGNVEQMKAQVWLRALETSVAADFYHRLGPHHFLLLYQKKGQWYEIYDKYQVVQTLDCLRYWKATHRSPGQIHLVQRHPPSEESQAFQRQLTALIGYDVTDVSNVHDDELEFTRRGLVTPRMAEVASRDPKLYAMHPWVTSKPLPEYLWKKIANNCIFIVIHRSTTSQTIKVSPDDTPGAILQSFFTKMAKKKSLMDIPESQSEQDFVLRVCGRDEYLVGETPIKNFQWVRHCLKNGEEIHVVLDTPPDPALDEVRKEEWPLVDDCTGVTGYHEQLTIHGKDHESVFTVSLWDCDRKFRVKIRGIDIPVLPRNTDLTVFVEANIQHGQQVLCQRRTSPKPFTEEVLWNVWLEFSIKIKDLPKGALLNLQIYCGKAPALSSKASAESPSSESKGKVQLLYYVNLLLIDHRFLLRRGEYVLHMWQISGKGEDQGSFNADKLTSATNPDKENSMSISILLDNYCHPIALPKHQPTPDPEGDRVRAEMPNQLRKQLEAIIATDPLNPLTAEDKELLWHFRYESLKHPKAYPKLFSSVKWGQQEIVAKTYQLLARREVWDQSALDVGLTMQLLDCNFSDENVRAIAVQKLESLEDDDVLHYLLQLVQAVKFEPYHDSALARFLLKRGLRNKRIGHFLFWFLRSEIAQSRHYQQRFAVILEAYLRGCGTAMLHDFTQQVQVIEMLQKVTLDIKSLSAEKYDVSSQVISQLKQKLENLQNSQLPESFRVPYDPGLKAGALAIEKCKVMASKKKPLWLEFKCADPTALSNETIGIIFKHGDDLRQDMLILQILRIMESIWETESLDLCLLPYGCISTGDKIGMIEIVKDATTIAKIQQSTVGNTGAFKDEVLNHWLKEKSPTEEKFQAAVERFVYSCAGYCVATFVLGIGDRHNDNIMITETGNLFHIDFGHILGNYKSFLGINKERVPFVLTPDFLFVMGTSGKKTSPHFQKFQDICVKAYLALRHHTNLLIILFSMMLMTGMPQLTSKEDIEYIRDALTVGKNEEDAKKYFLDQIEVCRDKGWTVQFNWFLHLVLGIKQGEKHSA

Row | IC50 | SMILES
1 | 630 nM | CC(=O)Nc1nc(C)c(-c2csc(N3CCCCC3)n2)s1 [Example 5, N-(4-methyl-2-piperidin-1-yl-4,5-bi-1,3-thiazol-2-yl)acetamide]
2 | 202 nM | C=CCNc1nc(-c2sc(NC(C)=O)nc2C)cs1 [Example 6, N-[2-(allylamino)-4-methyl-4,5-bi-1,3-thiazol-2-yl]acetamide]
3 | 94 nM | CC(=O)Nc1nc(C)c(-c2csc(Nc3cccnc3)n2)s1 [Example 7, N-[4-methyl-2-(Pyridin-3-ylamino)-4,5-bi-1,3-thiazol-2-yl]acetamid]
4 | 575 nM | CC(=O)Nc1nc(C)c(-c2csc(N)n2)s1 [Example 14, N-(2-amino-4-methyl-4,5-bi-1,3-thiazol-2-yl)acetamide]
5 | 844 nM | CC(=O)Nc1nc(C)c(-c2csc(N3CCOCC3)n2)s1 [Example 16, N-(4-methyl-2-morpholin-4-yl-4,5-bi-1,3-thiazol-2-yl)acetamide]
6 | 314 nM | CC(=O)Nc1nc(C)c(-c2csc(NC(C)(C)C)n2)s1 [Example 22, N-[2-(tert-butylamino)-4-methyl-4,5-bi-1,3-thiazol-2-yl]acetamide]
7 | 871 nM | CC(=O)Nc1nc(C)c(-c2csc(NCCN3CCOCC3)n2)s1 [Example 31, N-{4-methyl-2-[(2-morpholin-4-ylethyl)amino]-4,5-bi-1,3-thiazol-2-yl}acetamide]
8 | 355 nM | COCCNc1nc(-c2sc(NC(C)=O)nc2C)cs1 [Example 33, N-{2-[(2-methoxyethyl)amino]-4-methyl-4,5-bi-1,3-thiazol-2-yl}acetamide]
9 | 70 nM | CC(=O)Nc1nc(C)c(-c2csc(NCC(O)c3ccccc3)n2)s1 (centres unmarked) [Example 37, N-{2-[(2-hydroxy-2-phenylethyl)amino]-4-methyl-4,5-bi-1,3-thiazol-2-yl}acetamide]
10 | 38 nM | CC(=O)Nc1nc(C)c(-c2csc(Nc3cccnc3F)n2)s1 [Example 43, N-{2-[(2-fluoropyridin-3-yl)amino]-4′-methyl-4,5′-bi-1,3-thiazol-2′-yl}acetamide]
11 | 612 nM | CCOC(CCNc1nc(-c2sc(NC(C)=O)nc2C)cs1)OCC [Example 45, N-{2-[(3,3-diethoxypropyl)amino]-4′-methyl-4,5′-bi-1,3-thiazol-2′-yl}acetamide]
12 | 189 nM | CC(=O)NCCNc1nc(-c2sc(NC(C)=O)nc2C)cs1 [Example 77, N-(2-{[2-(acetylamino)ethyl]amino}-4′-methyl-4,5′-bi-1,3-thiazol-2′-yl)acetamide]
13 | 64 nM | CC(=O)Nc1nc(C)c(-c2csc(Nc3cccc(CCC(=O)O)c3)n2)s1 [Example 136, 3-(3-{[2′-(acetylamino)-4′-methyl-4,5′-bi-1,3-thiazol-2-yl]amino}phenyl) propanoic acid]

Row | SMILES | IC50
14 | CC(=O)Nc1nc(C)c(-c2csc(NCCc3nnc(O)o3)n2)s1 [Example 56, 5-(2-{[2′-(acetylamino)-4′-methyl-4,5′-bi-1,3-thiazol-2-yl]amino}ethyl)-1,3,4-oxadiazol-2-olate] | 377 nM

System: Akt/PKB phosphorylation in Raw 264-7 macrophages
Test: Cell based ELISA to monitor PI3K inhibition (Akt/PKB phosphorylation after Complement 5a stimulation)
Details: Mus musculus, RAW264.7, read-out: Cell Assay (P-Akt, Elisa) IC50 [μM]
Method: b) Cell Based ELISA to Monitor PI3K Inhibition:
The efficacy of compounds of the invention in inhibiting the PI3K induced AKt/PKB phosphorylation may be tested in the following cell based assay.
Measurement of Akt/PKB phosphorylation in macrophages after stimulation with Complement 5a: Raw 264: Raw 264-7 macrophages (cultured in DMEM-F12 medium containing 10% Fetal Calf serum and antibiotics) are plated at 20'000 cells/well in a 96 MTP 24 h before cell stimulation. Previous to the stimulation with 50 nM of Complement 5a during 5 minutes, Cells are serum starved for 2 h, and pretreated with inhibitors for 20 minutes. After stimulation cells are fixed in 4% formaldehyde for 20 minutes and washed 3 times in PBS containing 1% Triton X-100 (PBS/Triton). Endogenous peroxidase is blocked by a 20 minutes incubation in 0.6% H2O2 and 0.1% Sodium Azide in PBS/Triton and washed 3 times in PBS/Triton. Cells are then blocked by 60 minutes incubation with 10% fetal calf serum in PBS/Triton. Next, phosphorylated AKt/PKB is detected by an overnight incubation at 4° C. with first antibody (anti phospho Serine 473 Akt IHC, Cell Signaling) diluted 800-fold in PBS/Triton, containing 5% bovine serum albumin (BSA). After 3 washes in PBS/Triton, cells are incubated for 60 minutes with a peroxidase conjugated goat-anti-rabbit antibody (1/400 dilution in PBS/Triton, containing 5% BSA), washed 3 times in PBS/Triton, and 2 times in PBS and further incubated in 100 μl of substrate reagent solution (R&D) for 20 minutes. The reaction is stopped by addition of 50 μl of 1 M SO4H2 and absorbance is read at 450 nm.
The values indicated in Table II below reflect the percentage of inhibition of AKT phoshorylation as compared to basal level. Said values show a clear effect of the thiazole compounds on the activation of AKT phosphorylation in macrophages.

Row | SMILES | IC50
15 | CC(=O)Nc1nc(C)c(-c2csc(Nc3cccc(-c4nnc(O)o4)c3)n2)s1 [Example 53, N-(2-{[3-(5-hydroxy-1,3,4-oxadiazol-2-yl)phenyl]amino}-4′-methyl-4,5′-bi-1,3-thiazol-2′-yl)acetamide] | 1.51 µM

Same assay, conditions: Mus musculus, RAW264.7; Raw 264-7 macrophages, 50 nM Complement 5a; read-out: Cell Assay (P-Akt, Elisa) IC50

Row | IC50 | SMILES
16 | 3.18 µM | CC(=O)Nc1nc(C)c(-c2csc(Nc3cccc(C(=O)O)c3)n2)s1 [Example 1]
17 | 1.64 µM | CC(=O)Nc1nc(C)c(-c2csc(Nc3cccnc3)n2)s1 [Example 7, N-[4-methyl-2-(Pyridin-3-ylamino)-4,5-bi-1,3-thiazol-2-yl]acetamid]
18 | 0.66 µM | CC(=O)Nc1nc(C)c(-c2csc(Nc3ccc(Cl)nc3)n2)s1 [Example 24, N-{2-[(6-chloropyridin-3-yl)amino]-4-methyl-4,5-bi-1,3-thiazol-2-yl}acetamide]
19 | 1.84 µM | CC(=O)Nc1nc(C)c(-c2csc(NCCC(N)=O)n2)s1 [Example 84]

System: Class I PI3-kinases
Test: not given
Details: Fruman et al., 1998; read-out: IC50 against each of the various Class I PI3-kinases; cited from earlier work

Row | SMILES | IC50
20 | COC[C@H]1OC(=O)c2coc3c2[C@@]1(C)C1=C(C3=O)[C@@H]2CCC(=O)[C@@]2(C)C[C@H]1OC(C)=O [wortmannin] | 1 to 10 nM
